According to patent publication US20080038402A1, “RUMINANT ANIMAL FEED FORMULATIONS AND METHODS OF FORMULATING SAME” (priority 2006, published 2008):
Marks after values point to notes of the source that are not given here.

Assays:
rumen fluid [1] = test: Rumen gas production in vitro (rumen fluid added to buffer and food source, 0 to 6 hours); assay type: cell-based; conditions: by treatment of donor cows
Method: (§1) Rumen fluid was sampled via the fistula using the Geishawer probe according to standard methodology, with sampling done 2 hours pre-feeding, and again at 2, 4, and 6 hours post-feeding at day 19, 20 or 21 of a 21 day feeding period. Fluid was strained through 4 ply cheesecloth into duplicate containers treated with phosphoric acid (preservative). At the end of each feeding period, rumen fluid from the 2 hours pre-feeding sample was placed into a pre-warmed half litre vacuum flask and forwarded for in vitro studies, described below. The vacuum flask was filled and covered immediately after sampling.
Rumen fluid samples were also added to buffer and food source, and gas production was recorded from time 0 to 6 hours.

rumen fluid [2] = test: Rumen ammonia level after incubation, by treatment and soy process; assay type: cell-based, cows; conditions: by treatment
Method: (§2) Temperature, pH, redox on strained and unstrained rumen fluid were measured to assess viability and consistency. The rumen fluid was incubated for 6 hours at 39° C. with (1) control 0.13 g soybean meal (SBM) and 0.13 g TMR food sample; and (2) test 0.13 g Top Soy and 0.13 g TMR. Samples were analyzed for ammonia concentration and substrate disappearance.
This trial further validates the adjustments applied to KB in the method when monensin sodium, Surfactant or Essential Oil are included in the diet. Adjustment factors for each RAFA were calculated as the ratio of additive ammonia production to that of the control and applied to the KB during formulation.

rumen fluid [3] = test: Example 3c in vitro rumen fluid incubation (gas, DMD, VFA): monensin, organic acid, yeast culture, fermentation solubles; assay type: cell-based
Method: The measurement of rumen gas production over time is a well described technique (Minson 1998) and is subject to small variation between laboratories. In this laboratory, the substrate employed in all experiments was based on a dried TMR sample. […] The interaction of time by treatment by replicate was used as the error term. Dry matter digestibility was analyzed by ANOVA with treatment as the main effect in the model and treatment by replicate interaction as the error term. VFA parameters were analyzed by ANOVA with treatment as the main effect in the model and treatment by replicate interaction as the error term.
The protocol used in Example 3a was also used in 3c to investigate the additive effects of other RAFA
Statistical summaries were tabulated in Tables 18-20 below for Mean Gas Production (0 to 6 hours incubation), DMD (Dry Matter Digestibility) %, VFA Tot. (Volatile Fatty Acids total moles), Acetic, Propionic, I-Butyric, n-Butyric, Isovaleric, and n-Valeric acids (molar percentages).

rumen fluid [4] = test: Example 3a in vitro rumen fluid incubation (gas, DMD, VFA): monensin, soy oil, Ca salts of soy oil; assay type: cell-based
Source text: One objective of this experiment was to compare these lipid sources (soy oil and calcium salts of soy oil) with each other and in the presence and absence of monensin sodium.
Production of iso-valeric acid and n-valeric acid was also used to estimate the level of protein (specifically branched chain amino acid) degradation in the rumen (Benchaar et al 1998), and results of VFA production can thus be used as an adjustment factor to express the benefit of such additives on protein degradability.
The measurement of rumen gas production over time is a well described technique (Minson 1998) and is subject to small variation between laboratories. In this laboratory, the substrate employed in all experiments was based on a dried TMR sample. Data from gas measurement observations using two replicates (true volume corrected by subtraction of corresponding negative control values at similar time point) was analyzed by ANOVA with time, treatment, and replicate as main effects in the model. The interaction of time by treatment by replicate was used as the error term. Dry matter digestibility was analyzed by ANOVA with treatment as the main effect in the model and treatment by replicate interaction as the error term. VFA parameters were analyzed by ANOVA with treatment as the main effect in the model and treatment by replicate interaction as the error term.
Statistical summaries are given in Tables 10-12 below for Mean Gas Production (0 to 6 hours incubation), DMD (Dry Matter Digestibility) %, VFA Tot. (Volatile Fatty Acids total moles), Acetic, Propionic, Butyric, Isobutyric, Isovaleric, and n-Valeric acids (molar percentages).
This trial further validates the adjustments applied to KB when monensin and soy oil are included in the diet either separately or in combination. Adjustment factors are calculated as the ratio of rumen active feed additive valerate production (i-valeric acid plus n-valeric acid) in the combination treatment to that of the control (TMR with CaSalts of SoyOil). Using this approach, KB can be adjusted by the following factors: • Monensin=6.36/7.20=0.88 • SoyOil=6.95/7.20=0.97 • Monensin+SoyOil=5.40/7.20=0.75

rumen-fistulated cows = test: Daily milk production and feed consumption; assay type: in vivo; conditions: by treatment
Method: (§3) The use of the RAFA, were compared with an animal control. A four by four latin square design was used, employing four rumen-fistulated cows. Cows were fed a standard TMR (total mixed ration) for at least 7 days prior to the start of the experiment, and were assigned to one of the following four 21 day ration sequences: ABCD, BCDA, CDAB, and DABC, where A, B, C, and D are as follows: (A) control (standard TMR); (B) Monensin (control diet plus 200 mg/kg monensin); (C) Surfactant (control diet plus 316 mg/kg Surfactant); (D) Essential Oil (control diet plus 5 mg/kg Essential Oil).

rumen fluid [5] = test: Rumen fluid pH and volatile fatty acids in rumen-fistulated cows (4x4 latin square); assay type: in vivo
Method: as §3, §1
Rumen fluid pH and volatile fatty acids (VEA) were measured.

rumen fluid [6] = test: Redox, pH and dry matter disappearance of rumen fluid incubated 6 hours at 39° C.; assay type: cell-based, cows; conditions: by treatment
Method: as §1, §2

rumen fluid [7] = test: Concentration and breakdown of VFA in vitro in incubated rumen fluid; assay type: cell-based, cows; conditions: by treatment
Method: as §2
Concentration and breakdown of volatile fatty acids (VFA) in vitro were tabulated in Table 7, below, as results of statistical analysis across all timepoints.

monensin sodium
GAS (rumen fluid [1]): 10.39^c ml | Baseline-corrected Ammonia post incubation (rumen fluid [2]): 27.49^a mg/L | Baseline-corrected percent Ammonia reduction with Top Soy relative to SBM (rumen fluid [2]): 45.26% | DMD % (rumen fluid [3]; Dry Matter Digestibility): 19.4^ad % | Acetic (rumen fluid [3]; VFA): 60.5 mmol/100 mmol | Prop (rumen fluid [3]; VFA): 22.4^ab mmol/100 mmol | i-But (rumen fluid [3]; VFA): 4.1^bc mmol/100 mmol | i-Val (rumen fluid [3]; VFA): 1.5^abd mmol/100 mmol | n-But (rumen fluid [3]; VFA): 10.2 mmol/100 mmol | n-Val (rumen fluid [3]; VFA): 1.2^abc mmol/100 mmol | Mean Gas ml 0–6 hr (rumen fluid [3]; calculated as increase over negative Control): −0.9^b ml | VFA total (rumen fluid [3]; total yields): 41.6^b mmol/L | Acetic (rumen fluid [4]; VFA): 60.97^ab molar % | Prop (rumen fluid [4]; VFA): 20.82^b molar % | i-But (rumen fluid [4]; VFA): 1.06^c molar % | i-Val (rumen fluid [4]; VFA): 4.65^a molar % | n-But (rumen fluid [4]; VFA): 10.79 molar % | n-Val (rumen fluid [4]; VFA): 1.71 molar % | Mean Gas ml 0–6 hr (rumen fluid [4]; calculated as increase over Control, 6.6 mg/L monensin, 6 g/L lipid): 5.31^e ml | DMD % (rumen fluid [4]; dry matter disappearance): 43.48^a % | VFA, moles (rumen fluid [4]; total VFA production): 52.51^a moles | DMI (dry matter intake) (rumen-fistulated cows): 24.7^ab kg/day | Milk (rumen-fistulated cows): 43.7 kg/day | Milk/kg DMI (rumen-fistulated cows): 1.77 | Rumen pH (rumen fluid [5]; by treatment across all time points, 21 day ration, monensin 200 mg/kg, Surfactant 316 mg/kg, Essential Oil 5 mg/kg diet): 6.07 | Acetic (acetic acid) (rumen fluid [5]; rumen fluid by treatment): 57.90^b molar percentage | Prop (propionic acid) (rumen fluid [5]; rumen fluid by treatment): 24.91^c molar percentage | VFA total (rumen fluid [5]; rumen fluid by treatment): 102.64^b mmol/L | i-But (i-butyric acid) (rumen fluid [5]; rumen fluid by treatment): 0.95^b molar percentage | i-Val (i-valeric acid) (rumen fluid [5]; rumen fluid by treatment): 1.08^c molar percentage | n-But (n-butyric acid) (rumen fluid [5]; rumen fluid by treatment): 12.33 molar percentage | n-Val (n-valeric acid) (rumen fluid [5]; rumen fluid by treatment): 2.82^b molar percentage | Molar yields of propionate (rumen fluid [5]; rumen fluid by treatment, control 24.81): 25.56 | pH at T0 (rumen fluid [6]): 6.31 | DMD % (rumen fluid [6]; 6 hours at 39° C.): 40.43% | Redox (seconds) at T0 (rumen fluid [6]; cell viability): 30 s | Acetic (rumen fluid [7]): 58.62^a molar percentage | Prop (rumen fluid [7]): 25.51^a molar percentage | VFA total (rumen fluid [7]): 75.03^c mmol/L | i-But (rumen fluid [7]): 1.18 molar percentage | i-Val (rumen fluid [7]): 1.44^b molar percentage | n-But (rumen fluid [7]): 12.09^bc molar percentage | n-Val (rumen fluid [7]): 1.16^c molar percentage
